We go through seven molecules from patent US11083777B2, “Hemichannel extracellular-domain specific agents for treating ischemia-reperfusion injury” (The Feinstein Institutes for Medical Research, priority 2015, dated 2021).

Entries after “also recorded” stand apart in the source; their conditions may differ.

The conditions of assay [1]: in vivo; cited from earlier work.
The target of assay [2] is Panx1 hemichannels (Homo sapiens, UniProt Q96RD7). Conditions: cited from earlier work.
Assay [3] concerns C57BL/6 mice. Nature of the assay: Hepatic ischemia/reperfusion injury, serum ALT and AST. The class given is in vivo. As to conditions: 10.0 mg/kg BW via internal jugular vein at beginning of reperfusion; 24 h. The procedure: FIG. 10. Intravenous administration of Cx43 peptide antagonist conferred protection against hepatic ischemia/reperfusion (I/R) injury. Male C57BL/6 mice (20-25 g) were subjected to hepatic ischemia/reperfusion by temporally clamping the hepatic artery and portal vein for 60 minutes, which typically produced ischemia in 70% of the liver. At the beginning of the reperfusion, 0.2 ml saline, P5 (ENVCYD; 10.0 mg/kg BW) or P5A (ENVSYD (SEQ ID NO:14); 10.0 mg/kg BW) was injected via the internal jugular vein. At 24 h after the onset of ischemia, animals were euthanized to harvest blood to measure serum levels of hepatic injury markers such as alanine aminotransferase (ALT) and aspartate aminotransferase (AST) using commercial kits.
Intravenous administration of Cx43 peptide antagonist conferred protection against hepatic ischemia/reperfusion (I/R) injury. Male C57BL/6 mice (20-25 g) were subjected to hepatic ischemia/reperfusion by temporally clamping the hepatic artery and portal vein for 60 minutes, which typically produced ischemia in 70% of the liver. At the beginning of the reperfusion, 0.2 ml saline, P5 (ENVCYD, 10.0 mg/kg BW) or P5A (ENVSYD (SEQ ID NO:14), 10.0 mg/kg) was injected via the internal jugular vein. […]

Assay [4] deals with connexin 43-gated hemichannel activities. Nature of the assay: Lucifer Yellow dye uptake in LPS-stimulated RAW 264.7 cells. The format is cell-based. Conditions: LPS 16 h, LY 1 mg/ml 15 min. On the procedure: FIG. 8. […] The Lucifer Yellow dye uptake was used to measure the connexin 43-gated hemichannel activities. […] Subsequently, cell cultures were incubated with Lucifer Yellow (LY, 1 mg/ml) for 15 min, and fixed with 2% paraformaldehyde following three extensive washes with 1× PBS. The number of cells with diffused fluorescent signals was counted under a fluorescence microscope. The cells containing punctuate fluorescent signals were excluded, as the punctuate signals likely resulted from phagocytosis (rather than passive diffusion through Cx43 hemichannels) of the LY dye.
The Lucifer Yellow dye uptake was used to measure the connexin 43-gated hemichannel activities. […] Subsequently, cell cultures were incubated with Lucifer Yellow (LY, 1 mg/ml) for 15 min, and fixed with 2% paraformaldehyde following three extensive washes with 1×PBS. The number of cells with diffused fluorescent signals was counted under a fluorescence microscope. The cells containing punctuate fluorescent signals were excluded, as the punctuate signals likely resulted from phagocytosis (rather than passive diffusion through Cx43 hemichannels) of the LY dye. […] Animal survival was assessed for up to two weeks, and the Kaplan-Meier method was used to compare the differences in mortality rates between groups. […]

Assay [5] deals with PKR. Nature of the assay: LPS-induced PKR expression and phosphorylation (Western blotting). The format is cell-based, murine. Conditions: crude LPS, 16 h, primary macrophages.
Assay [6] deals with Primary peritoneal macrophages. Nature of the assay: LPS-induced HMGB1 secretion in primary peritoneal macrophages (Western blotting). The format is cell-based, murine. Conditions: crude LPS, 16 h, extracellular HMGB1. On the procedure: FIG. 2A-2C. […] AU, arbitrary units. *, P<0.05 versus “+LPS alone.”
Primary murine macrophages and human monocytes were employed to investigate the mechanisms underlying the regulation of HMGB1 secretion by various inflammatory stimuli. Primary peritoneal macrophages were isolated from Balb/C mice (male, 7-8 weeks, 20-25 grams) at 2-3 days after intraperitoneal injection of 2 ml thioglycollate broth (4%, Difco, Detroit, Mich.) as previously described (23,78). Human peripheral blood mononuclear cells (HuPBMCs) were isolated from human blood purchased from the New York (Long Island) Blood Bank (Melville, N.Y.) by density gradient centrifugation through Ficoll (Ficoll-Paque PLUS, Pharmacia, Piscataway, N.J.) as previously described (23,78,79). At 80-90% confluence, macrophage/monocyte cultures will be stimulated with divergent stimuli: ultrapure and crude LPS, CIRP 14, SAA (PeproTech, Cat. No. 300-13) at different concentrations and for various time periods (0, 6, 12, and 18 h). The expression levels of Cx43 or Panx1 hemichannel proteins in macrophage/monocyte cultures are determined by Western blotting or immunocytochemistry techniques as previously described (21,23,80).

Assay [7] relates to macrophage hemichannel activities. Nature of the assay: Lucifer Yellow uptake in LPS-stimulated macrophages. The format is cell-based.
For assay [8], the target named is Cx43 hemichannel (Homo sapiens, UniProt P17302). Conditions: ATP release or dye uptake; cited from earlier work.
Assay [9] concerns the target Cx43 gap junctions (Homo sapiens, UniProt P17302). Conditions: cited from earlier work.
Assay [10] has as its system Primary peritoneal macrophages. Description: LPS-induced NO production in primary peritoneal macrophages (Griess reaction). Conditions: crude LPS, 16 h. The class given is cell-based, murine. (In general: Griess reagent forms a coloured azo dye with nitrite.)
Assay [11] deals with Primary peritoneal macrophages. Conditions: reference 49; cited from earlier work.
The target of assay [12] is Panx1 hemichannel (Homo sapiens, UniProt Q96RD7). As to conditions: cited from earlier work.
Sequence of Panx1 hemichannel (Q96RD7 whole entry): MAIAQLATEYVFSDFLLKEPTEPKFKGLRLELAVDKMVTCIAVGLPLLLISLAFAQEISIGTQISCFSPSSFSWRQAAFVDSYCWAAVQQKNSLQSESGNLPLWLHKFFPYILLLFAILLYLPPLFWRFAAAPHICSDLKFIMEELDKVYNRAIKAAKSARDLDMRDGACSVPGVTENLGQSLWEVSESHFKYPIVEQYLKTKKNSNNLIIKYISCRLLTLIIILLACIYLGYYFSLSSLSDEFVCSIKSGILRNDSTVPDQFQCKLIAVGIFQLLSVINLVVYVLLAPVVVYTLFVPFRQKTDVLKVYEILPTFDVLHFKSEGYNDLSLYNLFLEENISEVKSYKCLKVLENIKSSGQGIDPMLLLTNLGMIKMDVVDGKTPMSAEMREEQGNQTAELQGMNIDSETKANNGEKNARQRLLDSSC

Sequence of Panx1 hemichannels (Q96RD7 whole entry, the tested form may be a part): as the sequence (Q96RD7 whole entry) above
Sequence of Cx43 gap junctions (P17302 whole entry): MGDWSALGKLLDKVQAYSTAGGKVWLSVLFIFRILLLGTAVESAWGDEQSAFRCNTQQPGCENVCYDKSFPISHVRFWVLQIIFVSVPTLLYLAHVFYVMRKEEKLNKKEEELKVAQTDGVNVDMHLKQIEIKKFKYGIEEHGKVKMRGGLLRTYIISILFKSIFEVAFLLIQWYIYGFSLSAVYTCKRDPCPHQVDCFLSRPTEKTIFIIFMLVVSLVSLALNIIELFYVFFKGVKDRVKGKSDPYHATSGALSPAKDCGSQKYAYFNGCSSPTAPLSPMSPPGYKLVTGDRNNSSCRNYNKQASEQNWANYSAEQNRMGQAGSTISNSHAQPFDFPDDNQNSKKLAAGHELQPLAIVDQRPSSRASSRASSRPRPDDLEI
Sequence of Cx43 hemichannel (P17302 whole entry): as above

Take `CC1(C)[C@@H](O[C@H]2O[C@H](C(=O)O)[C@@H](O)[C@H](O)[C@H]2O[C@@H]2O[C@H](C(=O)O)[C@@H](O)[C@H](O)[C@H]2O)CC[C@]2(C)[C@H]3C(=O)C=C4[C@@H]5C[C@@](C)(C(=O)O)CC[C@]5(C)CC[C@@]4(C)[C@]3(C)CC[C@@H]12` [GZA, glycyrrhizic acid]: the “benefit in animal models of hepatitis, hepatic ischemia/reperfusion, toxin-induced liver injury, endotoxemia, colitis” value in assay [1] is on record as “proven beneficial”.
Regarding `CCCN(CCC)S(=O)(=O)c1ccc(C(=O)O)cc1` [probenecid], the “specificity for Panx1 (over Cx43)” value in assay [2] is reported as “more specific inhibitor”.
For the molecule “P5: peptide ENVCYD (SEQ ID NO:1), Cx43 peptide antagonist from extracellular loop 1 (listed as Homo Sapiens)”, the “protection against hepatic I/R injury (serum ALT, AST)” value in assay [3] was “significant protection”. The “bacterial endotoxin-induced Lucifer Yellow dye uptake” value in assay [4] is recorded as “significantly inhibited”.
As for `Nc1ncnc2c1ncn2[C@@H](C=O)O[C@@H](C=O)COP(=O)(O)OP(=O)(O)OP(=O)(O)O` [oATP], the “LPS-induced elevation of PKR expression and phosphorylation” value in [5] is “significantly attenuated”. The “LPS-induced HMGB1 secretion” value in [6] is listed as “similarly inhibited”. For the same molecule, the “LPS-induced LY-uptake” value in assay [7] (data not shown) is given as “similarly inhibited”.
Regarding “Gap19: mimetic peptide KQIEIKKFK (SEQ ID NO:19), intracellular loop of Cx43 (HOMO SAPIENS)”, the Cx43 hemichannel activities result in [8] was “specifically inhibits”. Moreover, the “Cx43 gap junction communication” value in [9] is reported as “without affecting”. The Panx1 channel activity result in assay [2] is “without affecting”.
With `CC1(C)[C@@H](OC(=O)CCC(=O)O)CC[C@]2(C)[C@H]3C(=O)C=C4[C@@H]5C[C@@](C)(C(=O)O)CC[C@]5(C)CC[C@@]4(C)[C@]3(C)CC[C@@H]12` [CBX, carbenoxolone], the “LPS-induced elevation of PKR expression and phosphorylation” value in assay [5] was “dose-dependently abrogated; also recorded: significantly attenuated”. Also, in assay [10], the “LPS (endotoxin)-induced NO production” value is given as “effectively suppressed; also recorded: remarkably inhibited”. Moreover, the “concentrations of CBX used to abrogate LPS-induced HMGB1 secretion in macrophages” value in [11] was 5 to 10 µM. In addition, in assay [12] (CBX 10 μM, hypoxia, sheer stress, low oxygen tension), the “Panx1 hemichannel-mediated ATP release” value is “effectively inhibited”. Moreover, the “ATP release from apoptotic cells” value in assay [12] (CBX >100 μM) is listed as “uniformly attenuated”. Besides, the values for the EC50 in assay [9] and in [2] were 50 to 100 µM and 1 to 4 µM, respectively. Also, in assay [6], the “LPS-induced HMGB1 secretion” value is on record as “effectively suppressed; also recorded: dose-dependently abrogated; also recorded: remarkably inhibited”. Besides, the “number of LY-positive cells” value in [7] (prolonged LPS stimulation, quiescent approximately 2%, LPS alone ~16%) is given as 6-8%.
As to “10Panx: Panx1-specific mimetic inhibitory peptide, residues 74 to 83 of SEQ ID NO:16 (WRQAAFVDSY; HOMO SAPIENS)”, the “P2X7R-induced Panx1 hemichannel activation” value in [2] is on record as “selectively attenuate”.

A word on the EC50: it is the concentration needed to bring the measured effect to its halfway point.
